Assay results published in publication PMC6804233, “Design and Synthesis of Novel 1,3-Thiazole and 2-Hydrazinyl-1,3-Thiazole Derivatives as Anti-Candida Agents: In Vitro Antifungal Screening, Molecular Docking Study, and Spectroscopic Investigation of their Binding Interaction with Bovine Serum Albumin” (Molecules, 2019).

Target: T1, bovine serum albumin (BSA) (Bos taurus, UniProt P02769)
T1 construct: gene ALB; BSA fraction V
Assay: Intrinsic tryptophan fluorescence quenching titration (Stern–Volmer; double-log plot for Kb), pH […], room temperature
Type: binding
Conditions: read-out: Kb × 10^5 (M^-1) (converted)

T1 sequence (P02769 25-607): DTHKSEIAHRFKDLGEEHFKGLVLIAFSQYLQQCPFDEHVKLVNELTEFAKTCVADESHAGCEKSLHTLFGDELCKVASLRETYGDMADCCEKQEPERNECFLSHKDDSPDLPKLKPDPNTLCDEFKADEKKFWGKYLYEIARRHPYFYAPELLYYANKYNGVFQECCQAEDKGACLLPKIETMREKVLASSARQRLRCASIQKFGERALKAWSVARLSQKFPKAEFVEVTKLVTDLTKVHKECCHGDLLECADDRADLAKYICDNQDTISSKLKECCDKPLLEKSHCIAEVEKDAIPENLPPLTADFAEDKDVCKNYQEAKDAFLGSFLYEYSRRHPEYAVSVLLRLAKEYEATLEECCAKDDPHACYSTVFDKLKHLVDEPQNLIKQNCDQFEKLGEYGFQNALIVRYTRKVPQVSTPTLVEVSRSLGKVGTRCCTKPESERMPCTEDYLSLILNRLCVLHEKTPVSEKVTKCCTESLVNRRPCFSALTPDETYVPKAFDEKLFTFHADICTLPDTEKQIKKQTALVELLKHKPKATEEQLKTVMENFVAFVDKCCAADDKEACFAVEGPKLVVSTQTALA

- Kd: 4.42 µM
SMILES: Cc1ccc(-c2csc(NN=C(COc3cc(C)ccc3C(C)C)c3ccccc3)n2)cc1 [7e, 2-(2-(2-(2-isopropyl-5-methylphenoxy)-1-phenylethylidene)hydrazineyl)-4-(p-tolyl)thiazole]
